Results on 20 molecules are retold here after PubChem BioAssay AID330 (DTP/NCI, 2004).

The test concerns P388 leukemia ip, CD2F1 mice, survival T/C. Kind of test: NCI In Vivo Anticancer Drug Screen. Data for tumor model P388 Leukemia (intraperitoneal) in CD2F1 (CDF1) mice. As to conditions: endpoint: median survival time, higher = longer survival. In short, it runs like this: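 Mice carrying the transplanted tumor received test compound or vehicle. Survival was recorded in each group, and the value is the treated-group measurement divided by that of the vehicle-treated control group.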

Setting [1] is: dose: 60.0 mg/kg/injection, schedule: Q01DX005 (ip), vehicle: saline with Tween-80.
Setting [2] is: dose: 120.0 mg/kg/injection, schedule: Q01DX005 (ip), vehicle: saline with Tween-80.
Where [3] appears, read: dose: 240.0 mg/kg/injection, schedule: Q01DX005 (ip), vehicle: saline with Tween-80.
Where [4] appears, read: dose: 50.0 mg/kg/injection, schedule: Q01DX009 (ip), vehicle: saline.
[5] abbreviates: dose: 100.0 mg/kg/injection, schedule: Q01DX009 (ip), vehicle: saline.
[6] abbreviates: dose: 200.0 mg/kg/injection, schedule: Q01DX009 (ip), vehicle: saline.
The mark [7] stands for this setting: dose: 12.5 mg/kg/injection, schedule: Q04DX003 (ip), vehicle: saline with Tween-80.
Where [8] appears, read: dose: 25.0 mg/kg/injection, schedule: Q04DX003 (ip), vehicle: saline with Tween-80.
The mark [9] stands for this setting: dose: 50.0 mg/kg/injection, schedule: Q01DX009 (ip), vehicle: saline with Tween-80.
The mark [10] stands for this setting: dose: 100.0 mg/kg/injection, schedule: Q01DX009 (ip), vehicle: saline with Tween-80.
The mark [11] stands for this setting: dose: 100.0 mg/kg/injection, schedule: Q04DX002 (ip), vehicle: saline with Tween-80.
The mark [12] stands for this setting: dose: 200.0 mg/kg/injection, schedule: Q01DX009 (ip), vehicle: saline with Tween-80.
Where [13] appears, read: dose: 200.0 mg/kg/injection, schedule: Q04DX002 (ip), vehicle: saline with Tween-80.
Where [14] appears, read: dose: 400.0 mg/kg/injection, schedule: Q04DX002 (ip), vehicle: saline with Tween-80.

“And” between values parts separate entries of the source, which are not always exact repeats. Equal entries are not always repeated. Inconclusive results and toxic doses are left out.

Consider `CC1(C)OC(C(F)(F)F)(C(F)(F)F)c2cc(C(C)(C)C)ccc2S1`, for which the T/C runs as follows: under setting [1], 98 % of control; under setting [2], 98 % of control; under setting [3], 102 % of control.

Consider `O=c1[nH][nH]c(=O)c2c1CCCC2`, for which the T/C was 107 % of control (dose: 25.0 mg/kg/injection, schedule: Q01DX009 (ip), vehicle: saline); 95 % of control under setting [4]; 100 % of control under setting [5]; 101 % of control under setting [6].

As to `Cc1ccnc(NS(=O)(=O)c2ccc(N=Cc3c4ccccc4nc4cc(Cl)ccc34)cc2)n1`, the T/C by setting is: under setting [1], 96 % of control; under setting [2], 93 % of control; under setting [3], 96 % of control.

Consider `O=C(/C=C/c1c[nH]c2ccccc12)c1ccc([N+](=O)[O-])cc1`, for which the T/C is 100 % of control (dose: 15.0 mg/kg/injection, schedule: Q01DX005 (ip), vehicle: saline with Tween-80); 86 % of control (dose: 30.0 mg/kg/injection, schedule: Q01DX005 (ip), vehicle: saline with Tween-80); 97 % of control under setting [1].

In the case of `CCCC(=O)O.CCCC(=O)O.CCCC(=O)O.CCCC(=O)O.[Rh].[Rh]`, the T/C was 116 % of control (dose: 0.12 mg/kg/injection, schedule: Q01DX009 (ip), vehicle: saline + alcohol); 106 % of control and 122 % of control (dose: 0.25 mg/kg/injection, schedule: Q01DX009 (ip), vehicle: saline + alcohol); 118 % of control (dose: 15.63 micrograms/kg/injection, schedule: Q08HX018 (ip), vehicle: saline + alcohol); 107 % of control (dose: 31.25 micrograms/kg/injection, schedule: Q01DX009 (ip), vehicle: saline + alcohol); 118 % of control (dose: 31.25 micrograms/kg/injection, schedule: Q08HX018 (ip), vehicle: saline + alcohol); 101 % of control (dose: 62.5 micrograms/kg/injection, schedule: Q08HX018 (ip), vehicle: saline + alcohol). For the same molecule, the T/C reads like this: (dose: 125.0 micrograms/kg/injection, schedule: Q01DX009 (ip), vehicle: saline + alcohol) 114 % of control; (dose: 125.0 micrograms/kg/injection, schedule: Q08HX018 (ip), vehicle: saline + alcohol) 113 % of control; (dose: 250.0 micrograms/kg/injection, schedule: Q01DX009 (ip), vehicle: saline + alcohol) 115 % of control; (dose: 250.0 micrograms/kg/injection, schedule: Q08HX018 (ip), vehicle: saline + alcohol) 114 % of control; (dose: 500.0 micrograms/kg/injection, schedule: Q01DX009 (ip), vehicle: saline + alcohol) 122 % of control.

`CS(=O)(=O)CCN(N=O)C(=N)N[N+](=O)[O-]`: the T/C runs as follows: under setting [7], 118 % of control; under setting [8], 118 % of control; under setting [9], 159 % of control; (dose: 50.0 mg/kg/injection, schedule: Q04DX003 (ip), vehicle: saline with Tween-80) 118 % of control; (dose: 66.0 mg/kg/injection, schedule: Q04DX003 (ip), vehicle: saline with Tween-80) 154 % of control; (dose: 150.0 mg/kg/injection, schedule: Q04DX003 (ip), vehicle: saline with Tween-80) 154 % of control.

Regarding `CCCCCCCCCc1ccc(OCCOCCOCCOCCOCCOCCOCCOCCOCCOC(C)N2CCCC2=O)cc1` (stereo not given), the T/C was 110 % of control (dose: 6.25 mg/kg/injection, schedule: Q01DX009 (ip), vehicle: saline with Tween-80); 115 % of control (dose: 12.5 mg/kg/injection, schedule: Q01DX009 (ip), vehicle: saline with Tween-80); 120 % of control (dose: 25.0 mg/kg/injection, schedule: Q01DX009 (ip), vehicle: saline with Tween-80).

Take `C=CCNC(=O)/C=C\C(=O)O`: the T/C (dose: 37.5 mg/kg/injection, schedule: Q01DX009 (ip), vehicle: saline with Tween-80) was 98 % of control; the T/C (dose: 75.0 mg/kg/injection, schedule: Q01DX009 (ip), vehicle: saline with Tween-80) was 94 % of control; the T/C (dose: 150.0 mg/kg/injection, schedule: Q01DX009 (ip), vehicle: saline with Tween-80) was 94 % of control; the T/C (dose: 300.0 mg/kg/injection, schedule: Q01DX009 (ip), vehicle: saline with Tween-80) was 100 % of control.

In the case of `COC(=O)N1CCc2c([nH]oc2=O)C1`, the T/C is 90 % of control under setting [4], 88 % of control under setting [5] and 89 % of control under setting [6].

Regarding `CS(=O)CC(=O)c1ccccn1` (stereo not given), the T/C runs as follows: (dose: 50.0 mg/kg/injection, schedule: Q01DX005 (ip), vehicle: saline) 106 % of control; (dose: 100.0 mg/kg/injection, schedule: Q01DX005 (ip), vehicle: saline) 100 % of control; (dose: 200.0 mg/kg/injection, schedule: Q01DX005 (ip), vehicle: saline) 99 % of control.

Take `C1=C(c2ccccc2)Oc2ccccc2[P+]1(c1ccccc1)c1ccccc1`: the T/C runs as follows: (dose: 0.78 mg/kg/injection, schedule: Q01DX005 (ip), vehicle: Klucel (hydroxypropylcellulose) (HPC)) 100 % of control; (dose: 1.56 mg/kg/injection, schedule: Q01DX005 (ip), vehicle: Klucel (hydroxypropylcellulose) (HPC)) 109 % of control; (dose: 3.12 mg/kg/injection, schedule: Q01DX005 (ip), vehicle: Klucel (hydroxypropylcellulose) (HPC)) 99 % of control.

For the molecule `O=C(OC1CC2CCC1C2)c1cc([N+](=O)[O-])cc([N+](=O)[O-])c1` (stereo not given), the T/C runs as follows: under setting [9], 107 % of control; under setting [10], 100 % of control; under setting [11], 108 % of control; under setting [12], 90 % of control; under setting [13], 105 % of control; under setting [14], 100 % of control.

For `CSc1cccc(NC(=O)OCCOc2ccccc2Cl)c1`, the T/C by setting is: under setting [9], 105 % of control; under setting [10], 101 % of control; under setting [12], 100 % of control.

Regarding `CC1(O)CC23CC(O)C4(O)C(CC(O)C4(C)C)C(C)(O)C2CCC1C3O` (stereo not given), the T/C was 97 % of control (dose: 0.25 mg/kg/injection, schedule: Q01DX009 (ip), vehicle: Klucel (hydroxypropylcellulose) (HPC)) and 103 % of control (dose: 0.5 mg/kg/injection, schedule: Q01DX009 (ip), vehicle: Klucel (hydroxypropylcellulose) (HPC)).

With `O=C(C=C(C(F)(F)F)C(F)(F)F)c1cccc([N+](=O)[O-])c1`, the T/C runs as follows: (dose: 6.25 mg/kg/injection, schedule: Q04DX003 (ip), vehicle: saline with Tween-80) 104 % of control; under setting [7], 104 % of control; under setting [8], 100 % of control.

Regarding `Oc1ccccc1`, the T/C by setting is: (dose: 0.12 % in 0.5 ml injection vol, schedule: Q01DX009 (ip), vehicle: water) 103 % of control; (dose: 0.25 % in 0.5 ml injection vol, schedule: Q01DX009 (ip), vehicle: water) 103 % of control; (dose: 0.5 % in 0.5 ml injection vol, schedule: Q01DX009 (ip), vehicle: water) 111 % of control; (dose: 1.0 % in 0.5 ml injection vol, schedule: Q01DX009 (ip), vehicle: water) 118 % of control.

`COc1cc(C=Nc2ccc(-n3ccnc3C)cc2)ccc1N(CCCl)CCCl`: the T/C (dose: 5.0 mg/kg/injection, schedule: Q01DX009 (ip), vehicle: Klucel (hydroxypropylcellulose) (HPC)) was 170 % of control; the T/C (dose: 10.0 mg/kg/injection, schedule: Q01DX009 (ip), vehicle: Klucel (hydroxypropylcellulose) (HPC)) is 181 % of control; the T/C (dose: 20.0 mg/kg/injection, schedule: Q01DX009 (ip), vehicle: Klucel (hydroxypropylcellulose) (HPC)) is 106 % of control.

On to `NC(=O)N/N=C1/C=CC2(CC=CCC2)CC1` (stereo not given), for which the T/C is 90 % of control (dose: 100.0 mg/kg/injection, schedule: Q01DX001 (ip), vehicle: Klucel (hydroxypropylcellulose) (HPC)); 104 % of control (dose: 200.0 mg/kg/injection, schedule: Q01DX001 (ip), vehicle: Klucel (hydroxypropylcellulose) (HPC)); 90 % of control (dose: 400.0 mg/kg/injection, schedule: Q01DX001 (ip), vehicle: Klucel (hydroxypropylcellulose) (HPC)).

Regarding `COC(=O)Cn1/c(=N\N=C(/C)c2ccc(C)cc2)sc2ccccc21`, the T/C by setting is: (dose: 100.0 mg/kg/injection, schedule: Q01DX001 (ip), vehicle: saline with Tween-80) 95 % of control; (dose: 200.0 mg/kg/injection, schedule: Q01DX001 (ip), vehicle: saline with Tween-80) 91 % of control.

For the molecule `CC1(c2ccccc2)NN1`, the T/C reads like this: under setting [11], 94 % of control; under setting [13], 95 % of control; under setting [14], 94 % of control.
